Results as given in ChEMBL document CHEMBL1201862, “PubChem BioAssay data set” (2004).
One block for each molecule: values may come before it. Active and inactive are the calls of the source.

Tests used:
[1] = biological target: Beta-2 adrenergic receptor (Homo sapiens, UniProt P07550); experiment: ADRB2 activation measured by internalization – cell-based, FAP fluorogen, flow cytometry, cherry pick 1, dose response (AID 588763); assay type: functional
[2] = biological target: T1, Carboxy-terminal domain RNA polymerase II polypeptide A small phosphatase 1 (Homo sapiens, UniProt Q9GZU7); experiment: CTDSP1 inhibitors, concentration-response, biochemical, absorbance readout, ultra-high-throughput screen actives (AID 540297); assay type: functional
T1 sequence (Q9GZU7 whole entry): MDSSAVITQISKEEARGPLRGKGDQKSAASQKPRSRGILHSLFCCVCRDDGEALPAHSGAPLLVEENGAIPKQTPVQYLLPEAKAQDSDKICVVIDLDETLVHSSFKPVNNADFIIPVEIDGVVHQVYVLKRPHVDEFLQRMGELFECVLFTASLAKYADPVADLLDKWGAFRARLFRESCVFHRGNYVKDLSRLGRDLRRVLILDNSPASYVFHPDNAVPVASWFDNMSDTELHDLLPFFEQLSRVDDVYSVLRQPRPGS

Cytochrome P450 1A2 = biological target: T2, Cytochrome P450 1A2 (Homo sapiens, UniProt P05177);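 also: PubChem cytochrome P450 panel assay, CYP1A2 panel member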
T2 sequence (P05177 whole entry): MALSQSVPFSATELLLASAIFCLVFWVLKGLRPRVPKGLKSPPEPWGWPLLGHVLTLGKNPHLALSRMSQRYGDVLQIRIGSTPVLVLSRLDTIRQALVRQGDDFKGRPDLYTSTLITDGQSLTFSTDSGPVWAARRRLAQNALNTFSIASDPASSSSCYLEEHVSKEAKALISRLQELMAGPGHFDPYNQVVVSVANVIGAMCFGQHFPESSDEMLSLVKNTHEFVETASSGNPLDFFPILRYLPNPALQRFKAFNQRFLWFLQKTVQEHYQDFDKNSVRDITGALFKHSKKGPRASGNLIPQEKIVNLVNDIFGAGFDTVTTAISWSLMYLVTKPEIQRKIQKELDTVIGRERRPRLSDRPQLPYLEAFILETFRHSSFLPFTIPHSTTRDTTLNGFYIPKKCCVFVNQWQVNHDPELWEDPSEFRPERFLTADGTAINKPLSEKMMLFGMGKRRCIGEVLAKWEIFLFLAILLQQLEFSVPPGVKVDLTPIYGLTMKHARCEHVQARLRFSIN

[3] = test system: Streptococcus sp. 'group A'; experiment: Streptococcus pyogenes SK(-)GAS viability under kanamycin – luminescence, BacTiterGlo, confirmation, counter-screen for streptokinase expression inhibitor project, dose response (AID 1900); assay type: functional, organism-based
Streptococcus = experiment: GAS UMAA2166 growth inhibition – luminescence, BacTiterGlo, counter-screen for streptokinase expression inhibitor project, dose response (AID 1915); assay type: functional, organism-based;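 also: potency for reduction of bacterial viability or growth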
Vero = experiment: viability of Vero cells under compound – cytotoxicity control for flavivirus capping enzyme inhibitors (AID 588742); assay type: functional; conditions: Chlorocebus sabaeus
Genome polyprotein = Genome polyprotein (dengue virus type 2, UniProt P29990); experiment: flavivirus cap methylation enzyme inhibition – biochemical, confirmation dose response, primary screen (AID 588689); assay type: functional
Genome polyprotein, sequence (P29990 2492-3391 limits assumed): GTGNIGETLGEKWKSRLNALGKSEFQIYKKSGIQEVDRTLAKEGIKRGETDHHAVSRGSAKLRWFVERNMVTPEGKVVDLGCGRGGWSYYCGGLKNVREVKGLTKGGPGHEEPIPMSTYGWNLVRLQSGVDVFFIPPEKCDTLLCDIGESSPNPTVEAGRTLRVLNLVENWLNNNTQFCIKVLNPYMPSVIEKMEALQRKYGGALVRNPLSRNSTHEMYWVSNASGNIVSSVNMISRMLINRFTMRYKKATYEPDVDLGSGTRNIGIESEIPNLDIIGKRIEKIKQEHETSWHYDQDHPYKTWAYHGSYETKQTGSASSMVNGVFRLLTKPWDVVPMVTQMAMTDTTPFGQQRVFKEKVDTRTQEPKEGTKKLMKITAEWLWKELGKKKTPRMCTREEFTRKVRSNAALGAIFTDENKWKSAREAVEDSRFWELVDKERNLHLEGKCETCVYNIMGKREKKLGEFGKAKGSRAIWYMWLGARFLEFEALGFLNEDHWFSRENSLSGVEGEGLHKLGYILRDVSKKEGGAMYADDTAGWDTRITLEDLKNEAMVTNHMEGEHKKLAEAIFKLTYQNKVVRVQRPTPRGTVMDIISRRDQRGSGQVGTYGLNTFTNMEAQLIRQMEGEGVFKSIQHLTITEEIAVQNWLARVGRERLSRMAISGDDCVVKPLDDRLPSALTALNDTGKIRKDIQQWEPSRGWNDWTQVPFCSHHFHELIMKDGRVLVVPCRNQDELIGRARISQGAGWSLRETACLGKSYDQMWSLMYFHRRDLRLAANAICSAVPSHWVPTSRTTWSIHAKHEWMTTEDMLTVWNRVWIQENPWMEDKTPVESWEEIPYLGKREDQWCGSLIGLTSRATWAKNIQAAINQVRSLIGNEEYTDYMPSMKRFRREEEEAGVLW

[4] = biological target: T3, High affinity choline transporter 1 (Homo sapiens, UniProt Q9GZV3); experiment: human choline transporter blockers, potency – cell-based, 5-point CRC, membrane potential dye, dose response (AID 504840); assay type: functional
T3 sequence (Q9GZV3 whole entry): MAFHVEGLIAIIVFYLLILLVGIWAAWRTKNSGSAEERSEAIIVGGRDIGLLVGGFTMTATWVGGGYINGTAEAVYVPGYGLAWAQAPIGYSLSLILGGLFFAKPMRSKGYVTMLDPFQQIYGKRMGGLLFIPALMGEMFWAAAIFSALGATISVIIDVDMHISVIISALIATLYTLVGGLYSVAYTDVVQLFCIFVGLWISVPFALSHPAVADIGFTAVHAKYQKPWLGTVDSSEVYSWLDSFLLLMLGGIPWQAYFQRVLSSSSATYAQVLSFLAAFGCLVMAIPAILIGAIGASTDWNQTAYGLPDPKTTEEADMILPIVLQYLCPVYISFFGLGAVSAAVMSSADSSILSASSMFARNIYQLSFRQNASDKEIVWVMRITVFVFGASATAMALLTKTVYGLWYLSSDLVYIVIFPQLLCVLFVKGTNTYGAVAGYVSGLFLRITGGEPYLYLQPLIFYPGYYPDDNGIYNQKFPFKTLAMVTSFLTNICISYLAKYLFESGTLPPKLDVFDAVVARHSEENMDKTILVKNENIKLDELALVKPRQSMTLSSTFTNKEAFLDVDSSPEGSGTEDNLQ

[5] = biological target: T4, Corticotropin-releasing factor receptor 2/Corticotropin-releasing factor-binding protein (Homo sapiens, UniProt P24387+Q13324); experiment: activators of CRF receptor 2 with binding protein – uHTS hits, confirmation (AID 602473); assay type: functional; conditions: read-out: EC50_Mean
T4 sequence (Q13324 whole entry): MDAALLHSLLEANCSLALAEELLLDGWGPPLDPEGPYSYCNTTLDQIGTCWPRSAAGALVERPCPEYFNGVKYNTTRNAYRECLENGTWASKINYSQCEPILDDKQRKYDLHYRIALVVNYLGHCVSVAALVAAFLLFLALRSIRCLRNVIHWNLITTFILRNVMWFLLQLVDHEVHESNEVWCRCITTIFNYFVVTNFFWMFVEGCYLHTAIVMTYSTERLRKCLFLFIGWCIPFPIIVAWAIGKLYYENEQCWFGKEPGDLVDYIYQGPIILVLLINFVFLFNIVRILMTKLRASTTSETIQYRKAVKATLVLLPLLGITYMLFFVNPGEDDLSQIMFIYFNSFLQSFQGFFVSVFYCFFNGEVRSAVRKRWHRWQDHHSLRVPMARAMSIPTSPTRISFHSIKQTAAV
T4 sequence (P24387 whole entry): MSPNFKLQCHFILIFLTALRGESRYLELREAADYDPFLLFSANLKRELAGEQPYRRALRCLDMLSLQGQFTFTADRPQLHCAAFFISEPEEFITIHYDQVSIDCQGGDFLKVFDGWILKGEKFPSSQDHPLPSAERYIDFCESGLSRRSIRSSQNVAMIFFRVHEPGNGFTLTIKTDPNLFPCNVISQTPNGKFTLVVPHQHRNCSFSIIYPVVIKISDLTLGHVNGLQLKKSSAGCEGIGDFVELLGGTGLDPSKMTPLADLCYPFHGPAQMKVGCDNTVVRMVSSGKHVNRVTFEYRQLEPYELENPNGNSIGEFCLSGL

[6] = biological target: T5, Sentrin-specific protease 8 (Homo sapiens, UniProt Q96LD8); experiment: inhibition of human SENP8 cleavage activity – biochemical, luminescence, SAR follow-up (AID 504501); assay type: functional
T5 sequence (Q96LD8 whole entry): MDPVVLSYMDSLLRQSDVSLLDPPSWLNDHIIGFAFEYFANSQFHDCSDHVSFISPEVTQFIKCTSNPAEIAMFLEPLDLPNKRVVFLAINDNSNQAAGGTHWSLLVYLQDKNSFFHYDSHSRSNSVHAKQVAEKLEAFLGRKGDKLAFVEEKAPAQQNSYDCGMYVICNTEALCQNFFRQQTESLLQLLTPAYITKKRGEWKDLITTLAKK

Caspase-3 = biological target: T6, Caspase-3 (Homo sapiens, UniProt P42574); experiment: SAR Analysis of small molecule inhibitors of Sentrin-specific proteases (SENPs) using a Caspase-3 Selectivity assay. [Related pubchem assays (depositor defined):AID2540, AID2599, AID434973, AID489001]; assay type: functional
T6 sequence (P42574 whole entry): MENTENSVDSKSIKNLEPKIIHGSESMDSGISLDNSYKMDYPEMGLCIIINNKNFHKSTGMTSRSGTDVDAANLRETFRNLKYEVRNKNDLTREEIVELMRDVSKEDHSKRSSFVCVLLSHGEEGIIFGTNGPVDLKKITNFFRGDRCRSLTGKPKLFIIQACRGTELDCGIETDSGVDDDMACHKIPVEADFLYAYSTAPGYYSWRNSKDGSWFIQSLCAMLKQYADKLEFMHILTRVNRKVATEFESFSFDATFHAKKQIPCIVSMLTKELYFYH

[7] = biological target: T7, Sentrin-specific protease 6 (Homo sapiens, UniProt Q9GZR1); experiment: SAR Analysis of small molecule inhibitors of Sentrin-specific protease 6 (SENP6) using a Luminescent assay. [Related pubchem assays (depositor defined):AID2582, AID2599]; assay type: functional
T7 sequence (Q9GZR1 whole entry): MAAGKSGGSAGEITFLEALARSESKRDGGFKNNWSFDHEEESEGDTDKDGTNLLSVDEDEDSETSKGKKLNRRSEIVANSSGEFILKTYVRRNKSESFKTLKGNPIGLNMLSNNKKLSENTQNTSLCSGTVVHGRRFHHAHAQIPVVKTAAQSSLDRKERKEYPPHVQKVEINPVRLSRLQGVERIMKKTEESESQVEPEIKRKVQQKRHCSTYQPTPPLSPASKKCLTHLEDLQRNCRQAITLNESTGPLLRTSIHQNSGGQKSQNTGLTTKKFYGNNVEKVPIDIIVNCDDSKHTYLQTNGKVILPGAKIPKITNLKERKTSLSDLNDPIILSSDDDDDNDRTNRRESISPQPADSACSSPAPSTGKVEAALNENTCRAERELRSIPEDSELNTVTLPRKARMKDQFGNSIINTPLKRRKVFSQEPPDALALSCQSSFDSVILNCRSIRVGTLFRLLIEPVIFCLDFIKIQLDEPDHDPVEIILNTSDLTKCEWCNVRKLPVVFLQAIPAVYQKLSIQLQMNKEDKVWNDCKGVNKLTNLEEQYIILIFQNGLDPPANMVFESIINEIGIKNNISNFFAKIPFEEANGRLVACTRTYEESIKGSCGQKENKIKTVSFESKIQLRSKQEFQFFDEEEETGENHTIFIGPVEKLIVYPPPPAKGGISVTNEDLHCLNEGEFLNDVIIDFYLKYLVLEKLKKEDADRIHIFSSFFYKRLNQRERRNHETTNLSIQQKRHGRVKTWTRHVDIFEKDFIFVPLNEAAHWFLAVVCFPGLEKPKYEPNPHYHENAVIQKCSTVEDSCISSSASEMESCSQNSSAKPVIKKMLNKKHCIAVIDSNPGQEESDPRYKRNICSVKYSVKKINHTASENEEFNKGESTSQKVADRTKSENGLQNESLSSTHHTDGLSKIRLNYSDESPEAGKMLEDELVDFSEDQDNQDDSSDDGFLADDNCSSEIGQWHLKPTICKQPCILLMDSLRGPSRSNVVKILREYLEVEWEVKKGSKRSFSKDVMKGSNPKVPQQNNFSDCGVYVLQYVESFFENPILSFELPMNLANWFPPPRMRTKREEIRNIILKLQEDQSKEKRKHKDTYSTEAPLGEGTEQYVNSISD

[8] = biological target: T8, Sentrin-specific protease 7 (Homo sapiens, UniProt Q9BQF6); experiment: inhibition of human SENP7 cleavage activity – biochemical, luminescence, SAR follow-up (AID 504497); assay type: functional
T8 sequence (Q9BQF6 whole entry): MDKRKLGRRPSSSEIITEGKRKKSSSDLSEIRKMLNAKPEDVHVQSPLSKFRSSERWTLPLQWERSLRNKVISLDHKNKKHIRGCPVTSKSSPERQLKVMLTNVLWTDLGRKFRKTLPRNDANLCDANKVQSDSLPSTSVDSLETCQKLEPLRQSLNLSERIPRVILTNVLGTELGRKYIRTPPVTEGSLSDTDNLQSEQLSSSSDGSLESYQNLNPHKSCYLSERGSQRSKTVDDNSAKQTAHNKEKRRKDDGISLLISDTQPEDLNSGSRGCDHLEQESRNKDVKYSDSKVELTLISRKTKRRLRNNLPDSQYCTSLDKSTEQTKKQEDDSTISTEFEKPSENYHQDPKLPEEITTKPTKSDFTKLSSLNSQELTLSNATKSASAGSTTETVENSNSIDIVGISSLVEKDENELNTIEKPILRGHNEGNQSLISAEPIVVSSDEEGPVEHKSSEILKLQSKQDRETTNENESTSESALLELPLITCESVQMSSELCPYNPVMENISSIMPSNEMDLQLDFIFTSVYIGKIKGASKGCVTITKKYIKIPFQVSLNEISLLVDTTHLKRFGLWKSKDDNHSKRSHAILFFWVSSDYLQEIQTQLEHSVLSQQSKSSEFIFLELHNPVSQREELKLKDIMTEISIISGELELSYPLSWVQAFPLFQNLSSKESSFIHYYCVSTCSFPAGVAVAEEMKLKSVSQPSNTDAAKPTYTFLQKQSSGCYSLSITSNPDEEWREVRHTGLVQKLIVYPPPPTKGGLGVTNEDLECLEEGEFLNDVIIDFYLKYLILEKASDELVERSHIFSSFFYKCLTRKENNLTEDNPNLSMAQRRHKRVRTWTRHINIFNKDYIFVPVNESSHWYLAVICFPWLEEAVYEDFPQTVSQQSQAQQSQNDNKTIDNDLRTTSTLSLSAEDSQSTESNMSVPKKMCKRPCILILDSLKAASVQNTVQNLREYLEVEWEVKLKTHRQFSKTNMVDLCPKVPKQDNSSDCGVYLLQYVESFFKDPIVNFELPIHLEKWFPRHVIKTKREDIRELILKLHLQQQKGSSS

Beta-2 adrenergic receptor, sequence (P07550 whole entry, the tested form may be a part): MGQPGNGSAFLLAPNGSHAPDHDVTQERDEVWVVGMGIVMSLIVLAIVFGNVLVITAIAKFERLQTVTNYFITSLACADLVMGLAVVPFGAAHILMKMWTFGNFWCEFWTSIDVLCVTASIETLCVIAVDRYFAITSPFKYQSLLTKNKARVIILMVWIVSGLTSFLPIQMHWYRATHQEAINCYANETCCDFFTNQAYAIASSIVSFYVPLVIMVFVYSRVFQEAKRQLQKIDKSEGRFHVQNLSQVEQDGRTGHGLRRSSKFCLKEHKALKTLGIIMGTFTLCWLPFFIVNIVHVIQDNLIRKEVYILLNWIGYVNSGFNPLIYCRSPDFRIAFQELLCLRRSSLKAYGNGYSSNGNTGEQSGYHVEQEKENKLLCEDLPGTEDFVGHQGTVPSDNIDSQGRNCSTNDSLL

Structure (SMILES): O=C(O)CN1C(=O)/C(=C\c2cc(Br)ccc2OCc2ccc(Cl)cc2Cl)SC1=S
- EC50 [3]: 1.36 µM (active)
- EC50 (Streptococcus): 1.95 µM (active)
- CC50 (Vero): > 40 µM (active)
- IC50 (Genome polyprotein): 28.8 µM (active)

Structure (SMILES): CC(C)=CCC(C)(C)C1OCCN1C(=O)c1ccccc1 (stereo unspecified)
- EC50 [1]: 3.3 µM (active)

Structure (SMILES): C(=N/Nc1cc(N2CCCCCC2)nc(N2CCCCCC2)n1)/c1ccccc1
- IC50 [6]: > 99 µM (inactive)
- IC50 (Caspase-3): > 99 µM (inactive)
- IC50 [7]: 64.6 µM (active)
- IC50 [8]: > 99 µM (inactive)

More lines, main results first:

- EC50 [1]: 2.59 µM (active)
Structure (SMILES): O=C(c1ccc(OC2CCN(Cc3ccc(C(F)(F)F)cc3)CC2)cc1)N1CCCCC1

- IC50 [2]: 7.21 µM (active)
- EC50 [1]: 7.22 µM (inactive)
- AC50 (Cytochrome P450 1A2): 25.1 µM (inconclusive)
Structure (SMILES): O=C(Nc1cccc(-c2nc3ncccc3o2)c1)c1sc2cc(Cl)ccc2c1Cl

- IC50 [4]: 13.2 µM (active)
- IC50 (Genome polyprotein): 67.9 µM (active)
- EC50 [5]: 1.83 µM (active)
Structure (SMILES): O=C(Nc1cc(S(=O)(=O)N2CCCCC2)ccc1O)c1ccccc1NS(=O)(=O)c1ccc(F)cc1
- CC50 (Vero): > 40 µM (active)

- IC50 (Caspase-3): > 99 µM (inactive)
- IC50 [7]: > 99 µM (inactive)
- IC50 [8]: > 99 µM (inactive)
Structure (SMILES): CN(C)S(=O)(=O)c1ccc2nc(NC(=O)c3sc4ccccc4c3Cl)sc2c1
- IC50 [6]: > 99 µM (inactive)
